The source of these data is US8658638B2, “Mineralocorticoid receptor antagonist and methods of use” (priority 2009, dated 2014).

Data set [1] has as its target T1, human androgen receptor (AR) (Homo sapiens, UniProt P10275).
T1 sequence (P10275 1-920): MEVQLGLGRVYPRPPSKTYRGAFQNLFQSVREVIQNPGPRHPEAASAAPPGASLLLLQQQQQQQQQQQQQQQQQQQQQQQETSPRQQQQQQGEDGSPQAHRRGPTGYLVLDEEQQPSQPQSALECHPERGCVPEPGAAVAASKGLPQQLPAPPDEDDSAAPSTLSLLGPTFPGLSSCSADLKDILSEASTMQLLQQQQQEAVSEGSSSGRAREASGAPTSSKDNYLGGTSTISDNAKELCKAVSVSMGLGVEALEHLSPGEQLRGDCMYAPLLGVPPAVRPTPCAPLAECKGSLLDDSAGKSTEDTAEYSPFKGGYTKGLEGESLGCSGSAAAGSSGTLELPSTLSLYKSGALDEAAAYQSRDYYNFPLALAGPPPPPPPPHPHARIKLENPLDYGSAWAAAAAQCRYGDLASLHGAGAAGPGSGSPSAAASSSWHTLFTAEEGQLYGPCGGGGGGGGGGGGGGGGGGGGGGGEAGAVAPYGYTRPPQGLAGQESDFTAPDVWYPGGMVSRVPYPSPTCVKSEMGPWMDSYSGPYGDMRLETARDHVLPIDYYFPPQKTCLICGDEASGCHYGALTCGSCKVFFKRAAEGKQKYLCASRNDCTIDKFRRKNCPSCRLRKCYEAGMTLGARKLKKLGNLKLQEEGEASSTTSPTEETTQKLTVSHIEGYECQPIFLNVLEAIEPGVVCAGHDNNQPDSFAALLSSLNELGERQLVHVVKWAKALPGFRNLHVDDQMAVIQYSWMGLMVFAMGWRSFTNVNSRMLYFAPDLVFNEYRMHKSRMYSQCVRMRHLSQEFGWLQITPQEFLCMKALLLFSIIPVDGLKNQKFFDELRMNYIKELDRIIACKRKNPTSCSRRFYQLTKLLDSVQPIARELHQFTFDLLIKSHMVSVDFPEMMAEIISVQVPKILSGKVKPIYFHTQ
Put plainly: Nuclear hormone receptor panel screen (luciferase reporter, HEK293), AR. It counts as cell-based. The text has this:
Aldosterone exerts it physiological effects through interaction with the mineralocorticoid receptor. Following cytoplasmic binding of aldosterone to MR, the ligand receptor complex translocates to the cell nucleus where it binds to hormone response elements on DNA to initiate expression of target genes. […] The solvents, reagents, and ligands employed in the functional assay are readily available from commercial sources, or can be prepared by one of ordinary skill in the art.
Human embryonic kidney HEK293 cells are transfected with steroid hormone receptor and reporter gene plasmids using a suitable transfection reagent such as Fugene™. […] After 24 hours incubation with test compounds, cells are lysed and luciferase activity is determined using standard techniques.
Data are fitted to a four parameter-fit logistic curve to determine EC50 values. […] IC50 values are determined similarly using antagonist mode assay data. In the antagonist mode, percent inhibitions are determined by comparing test compound activity in the presence of low concentration of agonist (0.08 nM aldosterone for MR, 0.25 nM dexamethasone for GR, 0.66 nM of methyltrienolone for AR, and 0.08 nM of promegestone for PR) to the response produced by the same low concentration of agonist in the absence of test compound.
Background: Reporter assays use an easily measured gene product as a stand-in for the process of interest.

The test system of data set [2] is adrenalectomized Sprague Dawley rats. Briefly: In vivo assay of electrolyte modulation. The settings on record: 30 mg/kg p.o., aldosterone 3 μg/kg s.c., urine collected 5 hours after dose, rat. The protocol:
Male Sprague Dawley rats (240-280 g) are adrenalectomized then maintained on 5001 rodent chow and 1% NaCl drinking solution for 6 days after surgery. Animals are then fasted overnight and 1% saline drinking water is replaced with house water ad lib. The morning of the study, fasted animals are randomized to treatment on the basis of fasted body weight. Control animals (e.g. those that receive no aldosterone or test compound) are given 10 mL/kg of test compound vehicle comprising 0.5% CMC/0.25% polysorbate 80/2.7% NaCl by oral gavage, and 1 mL/kg of aldosterone vehicle (0.01% DMSO/water) by subcutaneous injection. Vehicle animals are given the same test compound vehicle by oral gavage and aldosterone 3 μg/kg, s.c. Test substances are suspended in the carboxy methylcellulose/NaCl vehicle. The test compound treatment groups receive test substance suspended in the carboxy methylcellulose/NaCl vehicle and aldosterone 3 μg/kg s.c. Immediately after dosing, animals are placed in metabolic racks with ad lib access to house water. Urine samples are collected 5 hours after dose administration and electrolyte excretion is assayed. Data are presented as log Na/K excretion ratio or % of Na/K ratio with respect to adrenalectomized vehicle treated animals. […]

`O=c1[nH]c2cc(/C=C3\c4ccccc4COc4cc(F)ccc43)ccc2n1[C@@H]1C[C@@H]2COCCN2C1` [Compound (I), 5-((E)-(3-fluorodibenzo[b,e]oxepin-11(6H)-ylidene)methyl)-1-((7R,8aR)-hexahydro-1H-pyrrolo[2,1-c][1,4]oxazin-7-yl)-1H-benzo[d]imidazol-2(3H)-one]: in data set [1] (agonist mode), the EC50 (in general, the concentration at which the effect is half-maximal) is greater than 10 µM. For the same molecule, the IC50 (commonly the concentration needed to halve the response being measured) in data set [1] (antagonist mode, 0.66 nM methyltrienolone) was greater than 10 µM. Also, the “increase of urinary Na/K excretion ratio compared to vehicle treated animals” value in data set [2] was “about 30%”.
